Counter-ions that a name gives are not always drawn.
target: human H4 receptor (Homo sapiens, UniProt Q9H3N8); assay: biochemical
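Note: radioligand displacement of a [3H]-labelled ligand from membranes of CHO cells stably expressing human H4 receptor, bound radioactivity counted on filters by liquid scintillation.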

| SMILES | Ki [nM] |
| --- | --- |
| CN1CCC(OC2c3cccc(F)c3CCn3cc(-c4ccccc4)nc32)CC1 (stereo not drawn) [Example 107, 8-fluoro-4-(1-methylpiperidin-4-yloxy)-2-phenyl-9,10-dihydro-4H-3,10a-diaza-benzo[f]azulene] | < 1000 |
| CN1CCC(OC2c3ccccc3CCn3cc(-c4ccc(C(=O)NC5CCC(O)CC5)cc4)nc32)CC1 (stereo not drawn) [Example 108, N-(4-hydroxycyclohexyl)-4-[4-(1-methylpiperidin-4-yloxy)-9,10-dihydro-4H-3,10a-diaza-benzo[f]azulen-2-yl]-benzamide] | < 1000 |
| CN1CCC(OC2c3ccccc3CCn3cc(SC4CCN(C(=O)OC(C)(C)C)CC4)nc32)CC1 (stereo not drawn) [Example 114, 4-[4-(1-methylpiperidin-4-yloxy)-9,10-dihydro-4H-3,10a-diaza-benzo[f]azulen-2-ylsulfanyl]-piperidine-1-carboxylic acid tert-butyl ester] | < 300 |
| CCOC(=O)c1c(C)nc2n1CCc1ccccc1C2OC1CCN(C)CC1 (stereo not drawn) [Example 116, 2-methyl-4-(1-methylpiperidin-4-yloxy)-9,10-dihydro-4H-3,10a-diazabenzo[f]azulene-1-carboxylic acid ethyl ester] | < 300 |
| CN1CCC(OC2c3ccccc3CCn3cc(C(C)(C)c4ccc(Cl)cc4)nc32)CC1 (stereo not drawn) [Example 117, 2-[1-(4-chlorophenyl)-1-methyl-ethyl]-4-(1-methylpiperidin-4-yloxy)-9,10-dihydro-4H-3,10a-diaza-benzo[f]azulene oxalate] | < 300 |
| CCOC(=O)c1nc2n(c1C)CCc1ccccc1C2OC1CCN(C)CC1 (stereo not drawn) [Example 118, 1-methyl-4-(1-methylpiperidin-4-yloxy)-9,10-dihydro-4H-3,10a-diaza-benzo[f]azulene-2-carboxylic acid ethyl ester] | < 1000 |
| Cc1nc2n(c1-c1ccccc1)CCc1ccccc1C2OC1CCN(C)CC1 (stereo not drawn) [Example 123, 2-methyl-4-(1-methylpiperidin-4-yloxy)-1-phenyl-9,10-dihydro-4H-3,10a-diaza-benzo[f]azulene oxalate] | < 300 |
| CN1CCC(OC2c3ccccc3CCn3cc(C=CCOCc4ccccc4)nc32)CC1 (stereo not drawn) [Example 124, 2-(3-benzyloxypropenyl)-4-(1-methylpiperidin-4-yloxy)-9,10-dihydro-4H-3,10a-diaza-benzo[f]azulene oxalate] | < 300 |
| CN1CCC(OC2c3ccccc3CCn3cc(CCc4cccs4)nc32)CC1 (stereo not drawn) [Example 126, 4-(1-methylpiperidin-4-yloxy)-2-(2-thiophen-2-ylethyl)-9,10-dihydro-4H-3,10a-diaza-benzo[f]azulene oxalate] | < 300 |
| CN1CCC(OC2c3ccccc3CCn3cc(CCCOCc4ccccc4)nc32)CC1 (stereo not drawn) [Example 128, 2-(3-benzyloxypropyl)-4-(1-methylpiperidin-4-yloxy)-9,10-dihydro-4H-3,10a-diaza-benzo[f]azulene oxalate] | < 300 |
| Cc1c(-c2ccc(N3CCN(C)C3=O)cc2)nc2n1CCc1ccccc1C2OC1CCN(C)CC1 (stereo not drawn) [Example 132, 1-methyl-3-{4-[1-methyl-4-(1-methylpiperidin-4-yloxy)-9,10-dihydro-4H-3,10a-diaza-benzo[f]azulen-2-yl]-phenyl}-imidazolidin-2-one] | < 300 |
| CN1CCC(OC2c3ccccc3CCn3cc(-c4ccc(CNC(=O)C(C)(C)C)cc4)nc32)CC1 (stereo not drawn) [Example 136, 2,2-dimethyl-N-{4-[4-(1-methylpiperidin-4-yloxy)-9,10-dihydro-4H-3,10a-diaza-benzo[f]azulen-2-yl]-benzyl}-propionamide] | < 300 |
| COCCC(=O)NCc1ccc(-c2cn3c(n2)C(OC2CCN(C)CC2)c2ccccc2CC3)cc1 (stereo not drawn) [Example 138, 3-methoxy-N-{4-[4-(1-methylpiperidin-4-yloxy)-9,10-dihydro-4H-3,10a-diaza-benzo[f]azulen-2-yl]-benzyl}-propionamide] | < 1000 |
| Cc1c(-c2ccc(N3CCCCC3=O)cc2)nc2n1CCc1ccccc1C2OC1CCN(C)CC1 (stereo not drawn) [Example 162, 1-{4-[1-methyl-4-(1-methylpiperidin-4-yloxy)-9,10-dihydro-4H-3,10a-diaza-benzo[f]azulen-2-yl]-phenyl}-piperidin-2-one oxalate] | < 300 |
| Cc1c(-c2ccc(N)cc2)nc2n1CCc1ccccc1C2OC1CCN(C)CC1 (stereo not drawn) [Example 173, 4-[1-methyl-4-(1-methylpiperidin-4-yloxy)-9,10-dihydro-4H-3,10a-diaza-benzo[f]azulen-2-yl]-phenylamine] | < 300 |
| Cc1c(-c2ccc(C3CCN(C(=O)OC(C)(C)C)CC3)cc2)nc2n1CCc1ccccc1C2OC1CCN(C)CC1 (stereo not drawn) [Example 177, 4-{4-[1-methyl-4-(1-methylpiperidin-4-yloxy)-9,10-dihydro-4H-3,10a-diaza-benzo[f]azulen-2-yl]-phenyl}-piperidine-1-carboxylic acid tert-butyl ester] | < 30 |

Results, then the molecule that gave them:

| Ki [nM] | SMILES |
| --- | --- |
| < 300 | CC(C)Cc1cn2c(n1)C(OC1CCN(C)CC1)c1ccccc1CC2 (stereo not drawn) [Example 109, 2-isobutyl-4-(1-methylpiperidin-4-yloxy)-9,10-dihydro-4H-3,10a-diaza-benzo[f]azulene oxalate] |
| < 300 | CN1CCC(OC2c3ccccc3CCn3cc(Cc4ccccc4)nc32)CC1 (stereo not drawn) [Example 110, 2-benzyl-4-(1-methyl-piperidin-4-yloxy)-9,10-dihydro-4H-3,10a-diaza-benzo[f]azulene oxalate] |
| < 30 | CN1CCC(OC2c3ccccc3CCn3cc(C=Cc4cccs4)nc32)CC1 (stereo not drawn) [Example 111, 4-(1-methylpiperidin-4-yloxy)-2-(2-thiophen-2-ylvinyl)-9,10-dihydro-4H-3,10a-diaza-benzo[f]azulene] |
| < 300 | CN(C)Cc1ccc(-c2cn3c(n2)C(OC2CCN(C)CC2)c2ccccc2CC3)cc1 (stereo not drawn) [Example 113, dimethyl-{4-[4-(1-methylpiperidin-4-yloxy)-9,10-dihydro-4H-3,10a-diaza-benzo[f]azulen-2-yl]-benzyl}-amine] |
| < 300 | CN1CCC(OC2c3ccccc3CCn3cc(-c4ccc(CNC(=O)OC(C)(C)C)cc4)nc32)CC1 (stereo not drawn) [Example 115, {4-[4-(1-methylpiperidin-4-yloxy)-9,10-dihydro-4H-3,10a-diaza-benzo[f]azulen-2-yl]-benzyl}-carbamic acid tert-butyl ester] |
| < 30 | CN1CCC(OC2c3ccccc3CCn3c2nc(-c2ccc(NC(=O)OC(C)(C)C)cc2)c3Cl)CC1 (stereo not drawn) [Example 141, {4-[1-chloro-4-(1-methylpiperidin-4-yloxy)-9,10-dihydro-4H-3,10a-diaza-benzo[f]azulen-2-yl]-phenyl}-carbamic acid tert-butyl ester] |
| < 30 | Cc1c(-c2ccc(CCS(C)(=O)=O)cc2)nc2n1CCc1ccccc1C2OC1CCN(C)CC1 (stereo not drawn) [Example 159, 2-[4-(2-methanesulfonylethyl)-phenyl]-1-methyl-4-(1-methylpiperidin-4-yloxy)-9,10-dihydro-4H-3,10a-diaza-benzo[f]azulene] |
| < 30 | Cc1c(-c2ccc(SCCNC(=O)OC(C)(C)C)cc2)nc2n1CCc1ccccc1C2OC1CCN(C)CC1 (stereo not drawn) [Example 160, (2-{4-[1-methyl-4-(1-methylpiperidin-4-yloxy)-9,10-dihydro-4H-3,10a-diaza-benzo[f]azulen-2-yl]-phenylsulfanyl}-ethyl)-carbamic acid tert-butyl ester oxalate] |
| < 30 | COC(=O)CSc1ccc(-c2nc3n(c2C)CCc2ccccc2C3OC2CCN(C)CC2)cc1 (stereo not drawn) [Example 165, {4-[1-methyl-4-(1-methylpiperidin-4-yloxy)-9,10-dihydro-4H-3,10a-diaza-benzo[f]azulen-2-yl]-phenylsulfanyl}-acetic acid methyl ester oxalate] |
| < 30 | Cc1c(-c2ccc(SC(C)(C)C)cc2)nc2n1CCc1ccccc1C2OC1CCN(C)CC1 (stereo not drawn) [Example 166, 2-(4-tert-butylsulfanylphenyl)-1-methyl-4-(1-methylpiperidin-4-yloxy)-9,10-dihydro-4H-3,10a-diaza-benzo[f]azulene oxalate] |
| < 30 | Cc1c(-c2ccc(C3=CCCC3)cc2)nc2n1CCc1ccccc1C2OC1CCN(C)CC1 (stereo not drawn) [Example 169, 2-(4-cyclopent-1-enylphenyl)-1-methyl-4-(1-methylpiperidin-4-yloxy)-9,10-dihydro-4H-3,10a-diaza-benzo[f]azulene] |
| < 30 | Cc1c(-c2ccc(C3=CCCCC3)cc2)nc2n1CCc1ccccc1C2OC1CCN(C)CC1 (stereo not drawn) [Example 170, 2-(4-cyclohex-1-enylphenyl)-1-methyl-4-(1-methylpiperidin-4-yloxy)-9,10-dihydro-4H-3,10a-diaza-benzo[f]azulene] |
| < 30 | Cc1c(-c2ccc(C3=CCCCCC3)cc2)nc2n1CCc1ccccc1C2OC1CCN(C)CC1 (stereo not drawn) [Example 171, 2-(4-cyclohept-1-enylphenyl)-1-methyl-4-(1-methylpiperidin-4-yloxy)-9,10-dihydro-4H-3,10a-diaza-benzo[f]azulene] |
| < 30 | Cc1c(-c2ccc(NC(=O)OC3CCCC3)cc2)nc2n1CCc1ccccc1C2OC1CCN(C)CC1 (stereo not drawn) [Example 172, {4-[1-methyl-4-(1-methylpiperidin-4-yloxy)-9,10-dihydro-4H-3,10a-diaza-benzo[f]azulen-2-yl]-phenyl}-carbamic acid cyclopentyl ester] |
| < 30 | Cc1c(-c2ccc(NC(=O)OCC(C)C)cc2)nc2n1CCc1ccccc1C2OC1CCN(C)CC1 (stereo not drawn) [Example 174, {4-[1-Methyl-4-(1-methyl-piperidin-4-yloxy)-9,10-dihydro-4H-3,10a-diaza-benzo[f]azulen-2-yl]-phenyl}-carbamic acid isobutyl ester] |
| < 30 | Cc1c(-c2ccc(NC(=O)OC(C)(C)C(Cl)(Cl)Cl)cc2)nc2n1CCc1ccccc1C2OC1CCN(C)CC1 (stereo not drawn) [Example 175, {4-[1-methyl-4-(1-methylpiperidin-4-yloxy)-9,10-dihydro-4H-3,10a-diaza-benzo[f]azulen-2-yl]-phenyl}-carbamic acid 2,2,2-trichloro-1,1-dimethyl-ethyl ester] |
| < 30 | Cc1c(-c2ccc(N3C(=O)OCC3Cc3ccccc3)cc2)nc2n1CCc1ccccc1C2OC1CCN(C)CC1 (stereo not drawn) [Example 176, 4-benzyl-3-{4-[1-methyl-4-(1-methylpiperidin-4-yloxy)-9,10-dihydro-4H-3,10a-diaza-benzo[f]azulen-2-yl]-phenyl}-oxazolidin-2-one] |

From US9255101B2 (BIOPROJECT, priority 2012, dated 2016)
